Test results reported in patent US9394268B2, “(E)-1-(5-methoxy-2,2-dimethyl-2H-chromen-8-yl)-3-(4-methoxyphenyl)prop-2-en-1-one and analogs thereof, as well as preparation method and use thereof” (Sichuan University, priority 2012, dated 2016).
Entries after “also recorded” stand apart in the source; their conditions may differ.

What was measured:
[1] = tested on: B16F10 cells; experiment: Malignant melanoma B16 tumor xenograft study; assay type: in vivo, C57 mice; conditions: 5, 10 and 15 mg/kg intravenous once every other day for seven times; vs control P<0.01
Procedure: In Vivo Antitumor Activity (1) In Malignant Melanoma B16 Tumor Xenograft Study of Millepachine
Six-week-old female mice were obtained from Chinese Academy of Medical Science (Beijing, China). B16F10 cells (5×10^5 in 100 μl saline) were injected subcutaneously into the right flanks of C57 mice. When the tumor reached about 100 mm^3, mice were selected and randomly divided into four groups including control and three compounds-treated groups. The animals were intravenous injection with Millepachine (5, 10 and 15 mg/kg) or vehicle once every other day for seven times. Tumor burden was measured every 2 or 3 days with a caliper (calculated volume [mm^3]=π/6×length×width×width). After treatment, mice were killed tumors were collected and weighted.

[2] = tested on: HT29; experiment: Cell proliferative assay (MTT), HT29; assay type: cell-based; conditions: Homo sapiens, HT-29, 72 h incubation, read-out: IC50s HT29
Procedure, shortened: (§1)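 Seed cells, incubate 24 h, add compounds at various doses, incubate 72 h, add MTT, measure absorbance at 590 nm. IC50 from dose-response curves, mean±SEM of ≥3 experiments.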

[3] = tested on: several cancer cell lines; conditions: background statement; cited from earlier work
[4] = tested on: K562; experiment: Cell proliferative assay (MTT), K562; assay type: cell-based; conditions: Homo sapiens, 72 h incubation, read-out: IC50s K562
Procedure, shortened: as §1

[5] = tested on: HepG2; experiment: Cell proliferative assay (MTT), HepG2; assay type: cell-based; conditions: Homo sapiens, 72 h incubation, read-out: IC50s HepG2
Procedure, shortened: as §1

[6] = tested on: B16F10 cells; experiment: Malignant melanoma B16-induced lung metastasis; assay type: in vivo, C57 mice; conditions: 7.5 and 15 mg/kg intravenous once every other day for seven times
Procedure: (2) The Effect of Millepachine on the Malignant Melanoma B16-Induced Lung Metastasis
Six-week-old female mice were obtained from Chinese Academy of Medical Science (Beijing, China). B16F10 cells (5×10^5 in 100 μl saline) were injected intravenous into the caudal vein of C57 mice. The animals were intravenous injection with Millepachine (7.5 and 15 mg/kg) or vehicle once every other day for seven times after incubation of cell. After stop treatment for 20 days, mice were killed and lung metastasis was observed.

[7] = tested on: SW620; experiment: Cell proliferative assay (MTT), SW620; assay type: cell-based; conditions: Homo sapiens, SW-620, 72 h incubation, read-out: IC50s SW620
Procedure, shortened: as §1

[8] = tested on: HCT116; experiment: Cell proliferative assay (MTT), HCT116; assay type: cell-based; conditions: Homo sapiens, HCT-116, 72 h incubation, read-out: IC50s HCT116
Procedure, shortened: as §1

[9] = tested on: tumor cells; experiment: Cell proliferative assay (MTT), summary over tumor cells; assay type: cell-based; conditions: summary in words of Table 1, colon, liver, leukemia lines
Procedure: The synthesized compounds were evaluated for their cytotoxin activity against suspended tumor cells. These cells were seeded on 96-well plates and incubated for 24 h. Selected compounds were added at various doses and incubated for 72 h, MTT was then added, and the absorbance was measured at a wavelength of 590 nm. IC50 values are expressed as the mean±SEM from the dose-response curves of at least three independent experiments.

[10] = tested on: HeLa-C3 cells; conditions: background statement; cited from earlier work
[11] = tested on: A549 cells; experiment: Human lung cancer A549 xenograft; assay type: in vivo, Balbc mice; conditions: 5, 10 and 20 mg/kg intravenous once three days for eight times; vs control P<0.01
Procedure: (3) In Vivo Anti-Tumor Activity of SKLBC-9 on Human Lung Cancer A549 Xenograft
Six-week-old female mice were obtained from Chinese Academy of Medical Science (Beijing, China). A549 cells (5×10^6 in 100 μl saline) were injected subcutaneously into the right flanks of Balbc mice. When the tumor reached about 100 mm^3, mice were selected and randomly divided into five groups including control, cisplatin (1.5 mg/kg) and SKLBC-9 (5,10,20 mg/kg). The animals were intravenous injection with SKLBC-9 (5, 10 and 20 mg/kg) or vehicle once three days for eight times. Tumor burden was measured every 2 or 3 days with a caliper (calculated volume [mm^3]=n/6× length×width×width). After treatment, mice were killed and tumors were collected and weighted.

[12] = tested on: SPC-A1 cells; experiment: Human lung cancer SPC-A1 xenograft; assay type: in vivo, Balb/c nude mice; conditions: 10, 20 mg/kg intravenous every three days for eight times; vs vehicle control
Procedure: (4) In Vivo Anti-Tumor Activity of SKLBC-9 on Human Lung Cancer SPC-A1 Xenograft
Six-week-old Balb/c nude mice were obtained from Chinese Academy of Medical Science (Beijing, China). SPC-A1 cells (5×10^6 in 100 μl saline) were injected subcutaneously into the right flanks of the mice. 14 days after cell injection, forty mice were selected and randomly divided into four groups including control, cisplatin (1.5 mg/kg) and SKLBC-9 (10, 20 mg/kg). The animals were intravenously injected with SKLBC-9 or vehicle every three days for eight times. Tumor burden and animal body weight was measured every 2 or 3 days. The survival rate was also recorded. After treatment, mice were killed and tumors were collected and weighted.

[13] = tested on: SMMC-7221; experiment: Cell proliferative assay (MTT), SMMC-7221; assay type: cell-based; conditions: 72 h incubation, read-out: IC50s SMMC-7221
Procedure, shortened: as §1

[14] = tested on: A375; experiment: Cell proliferative assay (MTT), A375; assay type: cell-based; conditions: Homo sapiens, A-375, 72 h incubation, read-out: IC50s A375
Procedure, shortened: as §1

[15] = tested on: LO2; experiment: Cell proliferative assay (MTT), LO2; assay type: cell-based; conditions: Homo sapiens, L02, 72 h incubation, read-out: IC50s LO2
Procedure, shortened: as §1

[16] = tested on: A549; experiment: Cell proliferative assay (MTT), A549; assay type: cell-based; conditions: Homo sapiens, 72 h incubation, read-out: IC50s A549
Procedure, shortened: as §1

[17] = tested on: HepG2 cells; experiment: Human hepatocarcinoma HepG2 xenograft (SKLBC-76 study); assay type: in vivo, Balb/c nude mice; conditions: 2.5, 5, 10 mg/kg intravenous every three days for eight times; vs control
Procedure: (6) In Vivo Anti-Tumor Activity of SKLBC-76 on Human Hepatocarcinoma HepG2 Xenograft
Six-week-old Balb/c nude mice were obtained from Chinese Academy of Medical Science (Beijing, China). HepG2 cells (10^7 in 100 μl saline) were injected subcutaneously into the right flanks of the mice. 14 days after cell injection, fifty mice were selected and randomly divided into five groups including control, three doses of SKLBC-76 (2.5, 5, 10 mg/kg) and positive control taxol (5 mg/kg). The animals were intravenously injected with SKLBC-76 or taxol every three days for eight times. Tumor burden and animal body weight was measured every 2 or 3 days. The survival rate was also recorded. After treatment, mice were killed and tumors were collected and weighted.

[18] = tested on: C26 cells; experiment: C26-tumor bearing mice model (seven-compound study); assay type: in vivo, Balb/c mice; conditions: 10 mg/kg intravenous every two days for eight times; vs control
Procedure: (8) In Vivo Anti-Tumor Activity of SKLBC-45, SKLBC-68, SKLBC-74, SKLBC-75, SKLBC-76, SKLBC-79, SKLBC-80 on C26-Tumor Bearing Mice Model.
Six-week-old Balb/c mice were obtained from Chinese Academy of Medical Science (Beijing, China). C26 cells (3×10^6 in 100 μl saline) were injected subcutaneously into the right flanks of the mice. 10 days after cell injection, when the average tumor volume reached ˜60 mm^3. Fifty-four mice were selected and randomly divided into nine groups including saline control, seven compounds and positive control taxol (5 mg/kg). The treatment started one day later. The animals were intravenously injected with SKLBC-45, SKLBC-68, SKLBC-74, SKLBC-75, SKLBC-76, SKLBC-79, SKLBC-80 (all 10 mg/kg) or taxol every two days for eight times. Tumor burden and animal body weight was measured every 2 or 3 days. The survival rate was also recorded. After treatment, mice were killed and tumors were collected and weighted. The results were shown in FIGS. 15, 16, 17, 18, 19, 20 and 21.

[19] = tested on: C26 cells; experiment: C26-tumor bearing mice model (SKLBC-83 study); assay type: in vivo, Balb/c mice; conditions: 10 mg/kg intravenous every two days for eight times; vs control
Procedure: (7) In Vivo Anti-Tumor Activity of SKLBC-83 on C26-Tumor Bearing Mice Model.
Six-week-old Balb/c mice were obtained from Chinese Academy of Medical Science (Beijing, China). C26 cells (3×10^6 in 100 μl saline) were injected subcutaneously into the right flanks of the mice. 10 days after cell injection, thirty mice were selected and randomly divided into three groups including saline control, SKLBC-83 (10 mg/kg) and positive control taxol (5 mg/kg). The animals were intravenously injected with […] or taxol every two days for eight times. Tumor burden and animal body weight was measured every 2 or 3 days. The survival rate was also recorded. After treatment, mice were killed and tumors were collected and weighted.

SMILES | IC50 [2] [µM] | IC50 [4] [µM] | IC50 [5] [µM] | IC50 [7] [µM] | IC50 [8] [µM] | inhibitory activity against tumor cells [9] | IC50 [13] [µM] | IC50 [14] [µM] | IC50 [15] [µM] | IC50 [16] [µM] | other results
COc1ccc(/C=C/C(=O)c2ccc(OC)c3c2OC(C)(C)C=C3)cc1 [Millepachine, (E)-1-(5-methoxy-2,2-dimethyl-2H-chromen-8-yl)-3-(4-methoxyphenyl)prop-2-en-1-one] | 3.29 | 4.56 | 2.61 | 0.76 | 4.66 | better inhibitory activity |  |  |  |  | survivor time of tumor-bearing mice [1]: prolong the survivor time; tumor growth [1]: suppress tumor growth; cytotoxic effects against cancer cells [3]: significant cytotoxic and apoptotic effects; lung metastasis [6]: dose-dependently inhibited; also recorded: significantly inhibited; inhibitory activity against tumor cells ([9]; listed as SKLBC-1): best inhibitory activity; apoptotic effects against cancer cells [10]: significant cytotoxic and apoptotic effects
COc1ccc(C(=O)/C=C/c2ccc(N(C)C)cc2)c2c1C=CC(C)(C)O2 [SKLBC-9, (E)-3-(4-(dimethylamino)phenyl)-1-(5-methoxy-2,2-dimethyl-2H-chromen-8-yl)prop-2-en-1-one] | 1.87 | 3.5 | 0.73 | 0.57 | 1.63 | better inhibitory activity |  |  |  |  | tumor growth [11]: suppress tumor growth; average tumor weight [12]: significantly lower; growth of tumor [12]: significantly inhibited
CCC(=O)Oc1cc(/C=C/C(=O)c2ccc(OC)c3c2OC(C)(C)C=C3)ccc1OC [SKLBC-76, (E)-2-methoxy-5-(3-(5-methoxy-2,2-dimethyl-2H-chromen-8-yl)-3-oxoprop-1-en-1-yl)phenyl propionate] |  | 0.164 | 0.103 |  |  |  | 2.15 | 0.443 | > 10 | 0.475 | average tumor weight [17]: significantly lower; growth of tumor [17]: significantly inhibited
COc1ccc(/C=C/C(=O)c2ccc(OC)c3c2OC(C)(C)C=C3)cc1N [SKLBC-83, (E)-3-(3-amino-4-methoxyphenyl)-1-(5-methoxy-2,2-dimethyl-2H-chromen-8-yl)prop-2-en-1-one] |  | 0.246 | 0.042 |  |  |  | 0.278 | 0.111 | 8.5 | 0.285 | average tumor weight [18]: significantly lower; growth of tumor [18]: significantly inhibited; average tumor weight [19]: significantly lower; growth of tumor [19]: significantly inhibited
